Consider one molecule from patent publication US20140030808A1, “Method for Cellular RNA Expression” (BIONTECH AG, priority 2010, published 2014).

Type in all cases: cell-based
For assay [1], the system named is Primary human foreskin fibroblasts (BJ, CCD1079Sk). As to the kind of experiment: Intracellular FACS staining of reprogramming transcription factors after IVT RNA transfer. On the procedure:
(AB) Primary human foreskin fibroblasts from different donors and suppliers (panel A: BJ fibroblasts; panel B: CCD1079Sk) and (C) MEFs were electroporated with 0.5 μg IVT RNA encoding for firefly luciferase and 1.25 μg IVT RNA encoding for eGFP and 2.5 μg of IVT RNA encoding for each of the individual reprogramming factors OCT4, SOX2, KLF4 and c-MYC. Electroporations were performed in 2 mm gap cuvettes using optimized parameters for each cell type. The cells were plated into 6-well-plates at a density of 250000 cells/well. The cells were either left untreated or incubated with increasing amounts of C13H8N4OS (PKR-inhibitor) ranging from 0.5 μM to 2 μM as indicated in the panel legend. The OCT4 expression was detected by intracellular staining with a fluorescently labeled antibody and measured by flow cytometry at the indicated time points. The mean fluorescence intensity (MFI) of the transfected OCT4-positive cell fractions is shown. (D) CCD1079Sk fibroblasts were electroporated with IVT RNA as in B and treated for 24 h or 48 h with 2 μM C13H8N4OS. 72 h post electroporation the cells were harvested and intracellular staining with fluorescent labeled antibodies reactive against the indicated transcription factors were performed. The MFI of the transcription factor-positive cell fractions are shown.
Intracellular FACS staining of OCT4, SOX2 and NANOG was done using the human pluripotent stem cell transcription factor analysis kit following the manufacturer's instructions (BD Bioscience). Briefly, 3-5×10^5 cells were harvested, washed twice with PBS and fixed for 20 min in 250 μl BD Cytofix Buffer (BD Biosciences) at room temperature. After the incubation cells were washed twice with PBS and permeabilized by washing twice with 1× Perm/Wash Buffer (BD Bioscience) followed by 10 minutes incubation in 50 μl 1× Perm/Wash at room temperature. […] Cells were resuspended in PBS supplemented with 2% formaldehyde and analyzed by flow cytometry as described above. […]

Assay [2] relates to Primary human foreskin fibroblasts (BJ, CCD1079Sk, HFF). To be noted: for luciferase expression after transient treatment: BJ and CCD1079SK.
Assay [3] has as its system human foreskin fibroblasts. As to the kind of experiment: Luciferase activity after lipofection (RNAiMAX) of IVT RNA. To be noted: increasing concentrations. On the procedure: 1.2 μg 5′-triphosphorylated and non-modified IVT RNA (0.8 μg encoding luciferase, 0.4 μg GFP) was packaged with 6 μl RNAiMAX transfection reagent (Invitrogen) and transfected into human foreskin fibroblasts and the medium supplemented with increasing concentrations of C13H8N4OS. At the indicated time points the cells were lysed and luciferase activity of the lysates was measured. […] This effect was dose-dependent.
To study whether C13H8N4OS could also enhance translation upon liposomal IVT RNA transfer, 1.2 μg 5′-triphosphorylated and non-modified IVT RNA (0.8 μg encoding luciferase, 0.4 μg GFP) was packaged with 6 μl RNAiMAX transfection reagent (Invitrogen) and transfected into human foreskin fibroblasts. After 3 h incubation with the transfection mixture, the medium was renewed and supplemented with increasing concentrations of C13H8N4OS. At the time points indicated in FIG. 15 the cells were lysed using luciferase stabilizing passive lysis buffer (Promega) according to the manufacturer's instructions. By the end of the time course, luciferase activity of all lysates was measured. […] This effect was dose-dependent. One of three independently performed experiments is shown. Thus, the effect of C13H8N4OS on translation of IVT RNA is not restricted to the delivery via electroporation. […]

[4] abbreviates: 2 μM for 24 h or 48 h, 72 h post electroporation.

Read-outs that look alike come from different tables or passages of the source.

On to `O=C1Nc2ccc3ncsc3c2/C1=C/c1c[nH]cn1` [C13H8N4OS, 6,8-dihydro-8-(1H-imidazol-5-ylmethylene)-7H-pyrrolo[2,3-g]benzothiazol-7-one], for which, in assay [1] (0.5 μM to 2 μM permanently or 2 μM for 24 h or 48 h), the “OCT4 expression (MFI)” value is “strongly increased and stabilized”. In addition, in assay [1] (setting [4]), the “Nanog expression (MFI)” value is “strongly increased and stabilized”; the “SOX2 expression (MFI)” value is “strongly increased and stabilized”. Also, the luciferase expression entry in assay [2] (0.5 μM to 2 μM, human fibroblasts, after electroporation) was “dose dependent increase”. Also, in assay [2] (2 μM C13H8N4OS on CCD1079SK cotransfected with E3/K3, vs untreated controls), the “luciferase expression on additional application of inhibitor” value is “additive increase of luciferase expression and a stabilization”. Moreover, the “luciferase expression after transient treatment” value in assay [2] (2 μM, 7 h incubation period) is given as “did not results in a significant increase of luciferase expression”. Besides, in assay [2] (2 μM, 24 h treatment), the “luciferase expression after transient treatment” value is recorded as “rapidly reversed after removal of the inhibitors”. In assay [2] (2 μM, 48 h treatment), the “luciferase expression after transient treatment” value is recorded as “less efficient than a permanent treatment”. Further, in assay [2] (2 μM, CCD1079Sk, 7 h to 72 h), the “luciferase expression from modified (5mC and PU) IVT RNA” value is “further increases and stabilizes”; the “luciferase expression from unmodified IVT-RNA” value is “greatly enhanced and stabilized”. In addition, the “duration of high luciferase expression levels” value in assay [2] (2 μM, permanent inhibition) is on record as 5 days. Also, the “stabilization of luciferase expression” value in assay [2] (highest concentration used (2 μM)) is given as “high level of stabilization”. In assay [3], the “dose dependence of the effect on translation of luciferase” value was “dose-dependent” and the “translation of luciferase after liposomal IVT RNA transfer” value is on record as “stabilizing effect on translation of luciferase”.
